Data published in patent publication US9296710B2, “Bicyclo (3.1.0) hexane-2, 6-dicarboxylic acid derivatives as mGlu2 receptor agonist” (Eli Lilly and Company, priority 2011, dated 2016).
Counter-ions that a name gives are not always drawn. One block for each compound: values may come before it.

Tests used:
[1] = system: PCP-induced hyperlocomotor activity in mice; assay: Reversal of Phencyclidine (PCP)-Induced Hyperlocomotor Activity in Mice; assay type: in vivo, mouse
Description: This assay for Reversal of Phencyclidine (PCP)-Induced Hyperlocomotor Activity in Mice is run substantially as the Reversal of Phencyclidine (PCP)-Induced Hyperlocomotor Activity in Rats assay provided above, using mice instead of rats and with the changes noted below.
Motor activity is monitored by placing individual male, ICR (CD-1), (Harlan, Indianapolis, Ind.) mice in transparent, plastic shoe-box cages of the dimensions 45×25×20 cm, with 0.5 cm depth of wood chips as bedding, and plastic lid on top of the cage. Motor monitors (Kinder Scientific) consist of a rectangular rack of 12 photobeams arranged in an 8×4 formation, (or a high density grouping of 22 in a 15×7 pattern) at a height of 2.5 cm. The shoe box cage is placed inside of these racks, with the racks on a 3 foot high tabletop in an isolated room. A compound of the present invention is dosed (intraperitoneal route, non-prodrug) usually within a range of 0.3-30 mg/kg; though higher doses may be used, 30 minutes prior to a 7.5 mg/kg challenge dose of phencyclidine (PCP). On the test day, mice are placed in the test cage and allowed to acclimate for 45 minutes prior to PCP challenge; mice are monitored for an additional 60 minutes following PCP administration.
Power analyses have determined that 7-8 mice per group are needed to have appropriate statistical power for detecting treatment differences (power=0.8).

[2] = system: immobility in forced swim test in mice; assay: Forced Swim Test in Rodents (mice); assay type: in vivo, mouse; conditions: for ED60 (60% of the amount of immobility relative to vehicle controls): intraperitoneal dosing 60 min prior to testing
Protocol: In this assay, mechanisms with purported antidepressant-like activity decrease immobility in a brief inescapable forced swim episode.
The forced-swim test was conducted in mice (male, NIH-Swiss mice, 20-25 g, Harlan Sprague-Dawley, Indianapolis, Ind.). Mice are placed in clear plastic cylinders (diameter 10 cm; height: 25 cm) filled to 6 cm with 22-25° C. water for six min. The duration of immobility is recorded during the last 4 min of a six-minute trial. The compounds of Examples 2, 3, 8, 11, and 12 are tested following intraperitoneal dosing, 60 min prior to testing. Imipramine is used as a positive control for these studies. Compounds are formulated in a water vehicle, with minimal NaOH added. The amount of time spent immobile (defined as movements only necessary to keep the subject's head above water) is the dependent measure and recorded by an observer blinded to the drug treatment of the subjects. Data are analyzed by post-hoc Dunnett's test with alpha level set at 0.05.

[3] = In Vitro Intestinal Prodrug Hydrolysis Assay; assay type: in vitro ADME; conditions: 1 h, 10 µM, pH 7.4
Protocol: Frozen human duodenum intestinal homogenates (1:2 tissue:buffer ratio using 100 mM Tris Phosphate buffer, pH 7.4) are obtained from Celsius In Vitro Technologies (Baltimore, Md.) that were both phenylmethylsulphonylfluoride (PMSF) and EDTA free.
Each lot of human duodenum is obtained from a single donor and the intestine is scraped and the sections are frozen separate. All original tissue collections are performed at 4° C. and immediately frozen at −70° C.
Hydrolysis of the positive control, Internal Prodrug Compound A to Internal Compound Drug A, run in every batch averaged 75.3% (n=20). Final values are then normalized relative to the formation of Internal Compound Drug A.

PepT1 = molecular target: T1, PepT1 (Homo sapiens, UniProt P46059); assay: In Vitro PepT1 GlySar Inhibition Screen; assay type: cell-based; conditions: prodrug at 5 mM, pH 6.0, PepT1 transiently transfected HeLa cells, 5 μM [14C]Gly-Sar and 20 μM cold Gly-Sar; read-out: Mean GlySar Uptake Inhibition %
T1 construct: expressed in transfected cells; host or cells: HeLa cells (ATCC), transient transfection with FUGENE6
T1 sequence (P46059 1-708): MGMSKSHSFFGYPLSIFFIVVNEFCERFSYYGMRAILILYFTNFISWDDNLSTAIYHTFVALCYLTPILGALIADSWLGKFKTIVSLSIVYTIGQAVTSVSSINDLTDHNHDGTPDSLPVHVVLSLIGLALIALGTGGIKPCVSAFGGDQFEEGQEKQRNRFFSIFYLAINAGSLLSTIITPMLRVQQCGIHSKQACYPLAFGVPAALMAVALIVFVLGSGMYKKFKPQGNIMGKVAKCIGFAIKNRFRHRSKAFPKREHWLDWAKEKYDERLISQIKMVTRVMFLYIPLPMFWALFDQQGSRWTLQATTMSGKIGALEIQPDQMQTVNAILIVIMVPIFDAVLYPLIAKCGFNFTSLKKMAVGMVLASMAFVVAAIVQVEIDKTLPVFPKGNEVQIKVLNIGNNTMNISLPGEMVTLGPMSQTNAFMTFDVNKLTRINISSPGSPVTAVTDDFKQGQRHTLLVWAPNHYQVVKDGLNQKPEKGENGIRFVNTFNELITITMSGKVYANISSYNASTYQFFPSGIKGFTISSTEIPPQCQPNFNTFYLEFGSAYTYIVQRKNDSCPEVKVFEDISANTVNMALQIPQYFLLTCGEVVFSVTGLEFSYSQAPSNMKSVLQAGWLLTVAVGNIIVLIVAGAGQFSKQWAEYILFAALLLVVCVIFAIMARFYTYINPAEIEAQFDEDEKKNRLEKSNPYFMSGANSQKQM
Protocol: PepT1 assays are established to examine the ability of the amino acid prodrug compounds to interact with the intestinal absorption transporter PepT1.
HeLa cells, derived from human cancer cells, (American Type Culture Collection) are grown in Hyclone Medium (Invitrogen, Cat# SH30243) containing 10% fetal bovine serum (FBS), 0.1 mM non essential amino acids (NEAA), and 100 units/mL penicillin with 100 μg/mL streptomycin at 37° C. in a 5% CO2 humidified atmosphere. The cell line is used for up to 40 passages and then discarded. Frozen cells in 1 mL vials are thawed in water bath for 1-2 minutes and added to 5 mL of cell medium at 37° C. Each of the T-flasks is provided with 8.5 mL of the fresh medium and 1.5 mL of the cell stock. Cells are passaged twice during a week. […] Each new flask receives a combination of 8.5 mL of fresh medium and 1.5 mL of cell stock, in order to obtain 1:6 cell dilution. Cells are incubated at 37° C., until ready for the uptake study.
Cells that are 70-80% confluent in the T-flasks are plated 1 day prior to the transfection procedure. The flask with the cell stock is treated with PBS-EDTA and trypsin to detach the cells, and transfection medium is used from this point. Transfection medium consists of Dulbecco's Modified Eagle Medium (DMEM)+NEAA. To each well, 0.5 mL of the cell mixture is added (1.3×10^5 is the desired cell concentration) and the cells are incubated at 37° C. overnight. Twenty four hours before the assay, cells are transfected with PEPT1. Transfection mixture is prepared by mixing 600 μL of serum free transfection medium, 18 μL of FUGENE6® (Roche Diagnostics), and 11 μg of the PepT1 DNA. The transfection reagent-DNA complex is incubated for 20 minutes and 24 μL of the reagent-DNA complex is added to each well.
Inhibition of PEPT1-mediated [glycyl-1-2-^14C]Glyclysarcosine (GlySar) uptake activity is measured in the cells cultured in the 24-well plates 24-hours post transfection as previously published (Zhang et al. 2004. J. Pharm. Exper Ther. 310:437-445). To measure the ability of a compound of the present invention to inhibit the uptake of [^14C]Gly-Sar, prodrug compounds are incubated with 80 to 90% confluent PepT1 transiently transfected HeLa cells at 5 mM in pH 6.0 uptake medium in the presence of 5 μM [^14C]Gly-Sar (Moravek Biochemicals) and 20 μM cold Gly-Sar. Uptake media consists of 140 mM NaCl, 5.4 mM KCl, 1.8 mM CaCl2, 0.8 mM MgSO4, 5 mM Glucose, 25 mM tris(hydroxymethyl)aminomethane buffer (TRIS). The solution is then brought to pH 6.0 using 2-(N-morpholino)ethanesulfonic acid. The incubation volume is 500 μL and is performed at room temperature for 3 minutes. To stop the uptake at the conclusion of the incubation time, the uptake media is aspirated off of the cell monolayer and 500 μL of ice cold PBS added to the well. The cells are washed 3 times with 500 μL of room temperature PBS without Ca^+2 and Mg^+2. The cells are then lysed with 300 μL of 1% TRITON® X100 H2O solution. A 200 μL aliquot is removed and radioactivity is determined by liquid scintillation counting to measure the [^14C]Gly-Sar present in each of the incubation wells. A no inhibitor control is established and the percent inhibition of each prodrug is calculated with respect to this control.

[4] = system: stress-induced hyperthermia in rats; assay: Attenuation of Stress-Induced Hyperthermia in Rats; assay type: in vivo, rat; conditions: i.p., 3 mg/kg
Description: In many anxiety disorders, hyperthermia occurs as part of the pathology and is considered a symptom of the disease. Compounds which attenuate stress-induced hyperthermia in animals are believed to be useful in treating anxiety disorders in humans. Generalized anxiety disorder is an example of such disorders that may be treated with such compounds. The conventional and minimally-invasive method for analyzing stress-induced hyperthermia is by measuring body temperature, and stress-induced increases in body temperature, via rectal thermometer. Male Fischer F-344 rats (Harlan, Indianapolis, Ind., USA) weighing between 275-350 g are tested. All animals are individually-housed with food and automated water available ad libitum, and maintained on a 12 h light/dark cycle (lights on at 06:00) Animals are fasted for approximately 12-18 hours before the experiment, which is conducted during the light phase. Rats are dosed one hour prior to the experiment by intraperitoneal (i.p.) route of administration in a dose volume of 1 mL/kg. The vehicle used was water with enough NaOH added to achieve a pH between 5-7. The mGluR5 antagonist MTEP (3-[(2-methyl-1,3-thiazol-4-yl)ethynyl]pyridine) and mGlu2/3 agonist LY317206 were used as quality controls, given that they produced reliable efficacy in this model Immediately following dosing, rats are returned to their home cage, and the experimenter turns off the lights and leaves the room. The dosing room is darkened for the remainder of the 1-hr pretreatment period.
After the pretreatment period, rats are taken individually to a brightly lit adjacent room where baseline body temperatures are determined by insertion of a rectal probe lubricated with mineral oil. Body temperature is assessed using a […] BAT-12® Microprobe Thermometer with a […] RET-2® rat rectal probe (Physitemp Instruments Inc., Clifton, N.J., USA). The probe is inserted approximately 2 cm into the rectum, to measure the core body temperature (this is the baseline body temperature, T1, in degrees Celsius). Ten minutes later a second body temperature measurement is recorded (T2). […]

Structure (SMILES): Cl.N[C@@]1(C(=O)O)C[C@@H](Sc2nnc(C(F)F)[nH]2)[C@H]2[C@H](C(=O)O)[C@H]21 [Example 8, (1R,2S,4R,5R,6R)-2-Amino-4-(5-difluoromethyl-1H-[1,2,4]triazol-3-ylsulfanyl)-bicyclo[3.1.0]hexane-2,6-dicarboxylic acid hydrochloride]
reversal of PCP-induced locomotor activity ([1]; single dose of 10 mg/kg): 52% | ED60 (60% of the amount of immobility relative to vehicle controls) [2]: 7.95 mg/kg

Structure (SMILES): N[C@@]1(C(=O)O)C[C@H](Sc2c[nH]nn2)[C@H]2[C@H](C(=O)O)[C@H]21 [Example 11, (1R,2S,4S,5R,6R)-2-Amino-4-(1H-triazol-4-ylsulfanyl)bicyclo[3.1.0] hexane-2,6-dicarboxylic acid hydrochloride]
ED50 ([1]; Mus musculus, i.p. administration, 30 minutes prior to 7.5 mg/kg PCP): 1.2 mg/kg | efficacy in forced swim test, second study ([2]; i.p., higher doses (3-30 mg/kg)): efficacy was lost | ED60 (60% of the amount of immobility relative to vehicle controls) [2]: 0.88 mg/kg

Structure (SMILES): CSCC[C@H](N)C(=O)N[C@@]1(C(=O)O)C[C@@H](Sc2nnc(C(F)(F)F)[nH]2)[C@H]2[C@H](C(=O)O)[C@H]21.Cl [Example 17, (1R,2S,4R,5R,6R)-2-((S)-2-Amino-4-methylsulfanyl-butyrylamino)-4-(5-trifluoromethyl-1H-[1,2,4]triazol-3-ylsulfanyl)-bicyclo[3.1.0]hexane-2,6-dicarboxylic acid hydrochloride]
In Vitro Human Intestinal Hydrolysis % (relative to positive control) [3]: 63.3%

Structure (SMILES): Cc1nc(C#Cc2cccnc2)cs1 [MTEP, 3-[(2-methyl-1,3-thiazol-4-yl)ethynyl]pyridine, reference compound]
reduction of stress-induced hyperthermia [4]: 53%

Continued, values first:

In Vitro Human Intestinal Hydrolysis % (relative to positive control) [3]: 65.5%
Structure (SMILES): Cl.NCC(=O)N[C@@]1(C(=O)O)C[C@@H](Sc2nnc(C(F)(F)F)[nH]2)[C@H]2[C@H](C(=O)O)[C@H]21 [Example 18, (1R,2S,4R,5R,6R)-2-(glycylamino)-4-{[5-(trifluoromethyl)-1H-1,2,4-triazol-3-yl]sulfanyl}bicyclo[3.1.0] hexane-2,6-dicarboxylic acid hydrochloride]

In Vitro Human Intestinal Hydrolysis % (relative to positive control) [3]: 58.1%
Structure (SMILES): C[C@H](N)C(=O)N[C@@]1(C(=O)O)C[C@@H](Sc2cn[nH]n2)[C@H]2[C@H](C(=O)O)[C@H]21.Cl [Example 19, (1R,2S,4R,5R,6R)-2-[[(2S)-2-Aminopropanoyl]amino]4-(2H-1,2,3-triazol-4-ylsulfanyl)bicyclo[3.1.0] hexane-2,6-dicarboxylic acid hydrochloride]

inhibition at 5000 µM (PepT1): 57.4% | In Vitro Human Intestinal Hydrolysis % (relative to positive control) [3]: 63.8%
Structure (SMILES): CSCC[C@H](N)C(=O)N[C@@]1(C(=O)O)C[C@@H](Sc2cn[nH]n2)[C@H]2[C@H](C(=O)O)[C@H]21.Cl [Example 21, (1R,2S,4R,5R,6R)-2-((S)-2-Amino-4-methylsulfanyl-butyrylamino)-4-(2H-[1,2,3]triazol-4-ylsulfanyl)-bicyclo[3.1.0]hexane-2,6-dicarboxylic acid hydrochloride]
